Measurements published in patent US20240125775A1, “IMMOBILIZATION AND MAGNETIC EXTRACTION OF PATHOGENS AND PATHOGEN COMPONENTS” (priority 2020, published 2024).
Entries after “also recorded” stand apart in the source; their conditions may differ. Ends that are not written are not given here.

Legend:
E. coli [1] = experiment: Separation of E. coli from blood; type: cell-based
Description: For this experiment, E. coli was added to blood and then 0.3 mg Fe/ml particles were used to extract/separate the bacteria. Thus, the remaining bacterial load in the blood was tested as a first aspect of this experiment. Furthermore, citrate and EDTA-stabilized blood was used and compared, as EDTA is expected to hinder the binding of the peptide to the bacteria. Therefore, the depletion of bacteria is expected to be lower in EDTA-stabilized blood compared to citrate-stabilized blood. The overall bacterial load in citrate stabilized blood amounted to 1913 colony forming units per milliliter (CFU/ml) (FIG. 15). SPION^APTES-SBA-SPP04 particles reduced the concentration to 927 CFU/ml in citrate-stabilized blood. […] For completeness, in EDTA-stabilized blood, the amount of CFUs was reduced from 2867 CFU/ml to 1733 CFU/ml by SPION^APTES-SBA-SPP04. Thus, a reduction of around 40% was achieved.
In this experiment we used blood from health volunteers and added an amount of bacteria to it. A concentration of 0.3 mg Fe/ml was used for the particles. To 0.8 ml of blood, (citrate or EDTA stabilized) 0.1 bacteria suspension in Ringer's solution have been added. After 5 min. of incubation, 0.1 ml of particles (3 mg Fe/ml) in Ringer's solution have been added. Samples were incubated for 5 minutes on a shaker at 700 rpm. After incubation, the particles have been removed by placing a magnet (310 mT) behind the samples. After 3 min separation of the particles the supernatant were plated out. As a negative control only 0.2 ml Ringer's solution was added to blood. The positive control consisted of 0.8 ml blood and 0.1 ml bacteria suspension and another 0.1 ml Ringer's solution. In addition the particles were washed one time after separation and then redispersed in Ringer's solution and plated out.
After 16 h of incubation, the CFUs (colony forming units) on the plates have been counted. The samples have been compared to the amount found in the positive control.

bacteria = experiment: Concentration of viable bacteria (10 ml sample, plating); type: cell-based; details: 0.3 mg Fe/ml, 30 minutes, 310 mT 3 minutes, 10 ml to 0.5 ml
Description: In this experiment, an approach as used with common blood cultures in order to identify pathogens was chosen. The total volume was set to 10 ml. The bacterial suspension was adjusted to an OD (measured at 600 nm) of 0.13 with Ringer's solution analogous to the previous experiments. A sample, which was not treated with SPIONs, served as a control. A concentration of 0.3 mg Fe/ml SPION^APTES-SBA-SPP04 was used. Incubation was performed for 30 minutes at room temperature on a rolling incubator. The particles were then magnetically separated for 3 minutes at 310 mT. 0.5 ml Ringer's solution was added to the particle pellets and vortexed. […] A total of 50 μl was plated out for each sample. […] Compared to common blood cultures, bacterial pathogens can be detected faster by using this method, because the amplification step of the bacteria using blood culture bottles could be omitted.

[2] = Hydrodynamic particle size (dynamic light scattering); type: physicochemical; details: neutral pH (e.g. around 7)
Description: Dynamic light scattering (DLS) was performed with a Zetasizer Nano ZS (Malvern Panalytical, Almelo, Netherlands) to determine the hydrodynamic particle size of the NP at 25° C.in water (refractive index 1.33; viscosity 0.8872 mPa-s; backscattering mode at 173°). The same device was used to measure the particle's aqueous zeta potential with 78.5 as dielectric constant. Measurements were done in triplicate at an iron concentration of 50 μg/ml and pH of 7.4, the results were averaged.

Pseudomonas aeruginosa = experiment: Depletion of Pseudomonas aeruginosa from aqueous medium; type: cell-based; details: from 5320 CFU/ml, 0.3 mg Fe/ml
Description: (§1) Analogous observations are shown in FIG. 13 for the gram negative bacterium Pseudomonas aeruginosa reduction from 5320 CFU/ml to 2 CFU/ml for SPION^APTES-SBA-SPP04 and 7 CFU/ml for SPION^APTES-SBA-SPP19 could be achieved. For Serratia marcescens (gram−) a reduction from 1300 CFU/ml to 26 CFU/ml for SPION^APTES-SBA-SPP04 could be achieved as shown in FIG. 14. Redispersed particles that were plated out yielding a recovery of 1227 CFU/ml for SPION^APTES-SBA-SPP04, which is similar to the positive control.

E. coli [3] = experiment: Magnetic separation of E. coli from aqueous medium (Ringer solution); type: cell-based; details: 5 minutes incubation, 3 minutes separation
Description: E. coli were incubated with particles for 5 minutes and then separated for 3 minutes. Supernatants were plated out. […] A reduction of the particle amount to 0.1 mg Fe/ml led to a reduced bacterial separation 170 CFUS).

[4] = Separation of micromer^LPS (artificial gram-negative bacteria); details: initial 0.1 mg/ml micromer^LPS, 1 mg/ml Fe, 2 h, OD 620 nm
Description: For a better understanding of the separation process, the inventors tried to remove artificial micromers to simulate bacteria. For this, LPS coated polystyrene/polymethacrylate Micromer® particles (micromer^LPS) were used and removed from a water suspension instead of living bacteria. […] This experiment was performed by optical density measurements at 620 nm, as it is done for actual bacteria.
For this experiment micromer® particles (micromer) were incubated with endotoxin to receive endotoxin coated micromer particles (micromer^LPS). Any other polymeric particles of similar size could have been used as an alternative. It has been reported, that endotoxins stick to surfaces and can be attached to polymeric particles. Therefore, particles bearing 1 mg particles/ml was incubated with 1 μg/ml endotoxin LPS3 for 2 h at 1400 rpm. After centrifugation the particles were washed several times.
SPION^APTES-SBA-SPP04 and unmodified SPION^HAp with a Fe concentration of 1 mg/ml were incubated with 0.1 mg micromer^LPS for 2 h at 1400 rpm and 37° ° C. SPION^APTES served as a control. A calibration curve was prepared with different concentrations of micromer^LPS. The calibration samples and the magnetically decanted supernatants were measured in the reader at 620 nm absorption wavelength like it is used for the OD measurements of bacteria (Brenner et al. 2005 and Chen et al. 2011). […]

Staphylococcus aureus = experiment: Depletion of Staphylococcus aureus from aqueous medium; type: cell-based; details: for Staphylococcus aureus after separation: from 1393 CFU/ml, 0.3 mg Fe/ml, Ringer's solution; for CFU of re-plated bacteria loaded particles: re-plating, S. aureus
Description: For testing the separation of S. aureus from a sample, particles were functionalized with the peptides SPP04 and SPP19 for this experiment. The bacterial suspension was adjusted to an OD (measured at 600 nm) of 0.13 and then diluted 1:800 with Ringer's solution. […] It could also be shown that the particles have no toxic effect on the bacteria. For Staphylococcus aureus (gram+) a reduction from 1393 CFU/ml to 27 CFU/ml for SPION^APTES-SBA-SPP04 and 73 CFU/ml for SPION^APTES-SBA-SPP19 could be achieved by separation as shown in FIG. 12.

Serratia marcescens = experiment: Depletion of Serratia marcescens from aqueous medium; type: cell-based
Description: as §1

[5] = test system: LPS (E. coli LPS O55:B5, O26:B6, O111:B4); experiment: LPS (endotoxin) binding, EndoZyme Recombinant Factor C Assay; details: 10 EU/ml LPS
Description: In order to evaluate general parameters of the concentration and incubation time with SPIONs, the inventors analysed conditions that are representative for these parameters. A high and a low particle concentration, as well as two exposure conditions were tested (agitation for 30 sec and 3 sec; particle concentration of 0.01 mg Fe/ml and 1 mg Fe/ml) were tested with the peptide exposing SPION^APTES-SBA-SPP04 and non-peptide exposing SPION^HAP. The concentration of peptide for the functionalized particles was assumed to be 0.08 μmol peptide/mg Fe, as assessed above. As other particles have been reported to bind certain amounts of LPS unspecifically, SPION^HAp are interesting for our experiments concerning this concern as a control.
Binding studies of endotoxin were performed with EndoZyme Recombinant Factor C Assay kit (Hyglos, Germany). In this kit, LPS is detected by recombinant Factor C, thus excluding possible interferences by p-glucans. Calibration curves for the three different LPSs have been prepared in endotoxin free water. SPION^APTES-SBA-SPP04 was used in this study as its efficacy has been described previously. For this experiment, we used two different iron concentrations (1 mg Fe/ml and 0.01 mg Fe/ml) and two incubation parameters (30 s at 1400 rpm and 37° C. as well as 3 s at RT). Three different LPSs were added to 200 μl of the different particle dispersions. The final concentration of LPS was set to 10 EU/ml in each tested sample. Spiking controls (8 and 5 EU/ml) were carried out to see if any interference occurred for all tested particles.
Supernatants were produced using a neodymium magnet (310 mT at separation side) for three minutes. 50 μl of each supernatant were mixed with 50 μl of the assay reagent (80% v/v assay buffer, 10% v/v substrate, 10% v/v enzyme) in black, endotoxin-free 96-well plates. The reaction was monitored for 90 minutes at 37° C. in 15 min intervals by recording the fluorescence at an excitation wavelength of 360 nm and an emission at 465 nm in a Filter-Max F5 Plate reader (Molecular Devices).

[6] = test system: lipoteichonic acids (LTA); experiment: Binding of LTA in aqueous Ringer' solution; details: 0.3 mg Fe/ml, 2.5 ng/ml LTA; for LTA bound: 5 minutes at 37° C., magnet 3 minutes
Description: The binding of a further relevant toxin (from gram-positive bacteria) was also investigated with the improved particles as disclosed herein, which was not described in Karawacka et al. (2018). These experiments were performed in aqueous Ringer' solution. […] For this experiment, 2.5 ng/ml LTA were used and incubated for 5 minutes at 37° C. on a shaker at 700 rpm. Subsequently, the particles were separated magnetically for 3 minutes. […] SPION^APTES-SBA-SPP04/SPION^APTES-SBA-SPP19 could bind 0.75 ng/ml LTA and 0.97 ng/ml, respectively. Thus, a reduction of LTA by 30% and 29%, respectively, could be detected by using the improved particles SPION^APTES-SBA-SPP04/SPION^APTES-SBA-SPP19 as disclosed herein.

## SPION^APTES-SBA-SPP04: APTES-coated SPIONs linked via SBA to peptide SPP04 (SEQ ID NO: 1) (RKQGRVEVLYRASWGTVC; also: conjugated via SBA linker to APTES-coated SPIONs)
E. coli [1]; EDTA-stabilized blood
  replating of extracted bacteria: 1066 CFU/ml
E. coli [1]; EDTA-stabilized blood, 0.3 mg Fe/ml
  reduction of bacterial load: around 40%
E. coli [1]; EDTA-stabilized blood, from 2867 CFU/ml, 0.3 mg Fe/ml
  E. coli remaining in blood: 1733 CFU/ml
E. coli [1]; citrate-stabilized blood
  replating of extracted bacteria: 913 CFU/ml
E. coli [1]; citrate-stabilized blood, from 1913 CFU/ml, 0.3 mg Fe/ml
  E. coli remaining in blood: 927 CFU/ml
bacteria
  plating of sample concentrated with SPIONs: dense bacterial lawn
[2]
  particle diameter after functionalization with peptide: 2.54 μm
Pseudomonas aeruginosa
  Pseudomonas aeruginosa after separation: 2 CFU/ml
E. coli [3]; 0.1 mg Fe/ml
  E. coli in supernatant: 170 CFUs
E. coli [3]; 1.0 mg Fe/ml
  E. coli in supernatant: 2 CFU/ml
[4]
  remaining micromer^LPS: 0.023 mg/mL
Staphylococcus aureus
  Staphylococcus aureus after separation: 27 CFU/ml
  CFU of re-plated bacteria loaded particles: in the range of the positive control; also recorded: even increased
Serratia marcescens; from 1300 CFU/ml, 0.3 mg Fe/ml
  Serratia marcescens after separation: 26 CFU/ml
Serratia marcescens; re-plating, Serratia marcescens
  recovery from redispersed, plated particles: 1227 CFU/ml
[5]; 0.01 mg Fe/ml (FIG. 8C, D)
  binding of LPS: about 50%
[5]; 0.01 mg Fe/ml, 3 seconds
  reduction / binding of LPS, all LPS types: at least 40%
[5]; 0.01 mg Fe/ml, 30 seconds
  reduction of LPS, all three LPS types: at least 48%
[5]; 1 mg Fe/ml, 3 s
  LPS bound: 94%
  remaining LPS: up to 6%
[5]; 1 mg Fe/ml, 30 s of agitation
  LPS removal: completely removed the LPS below the detection limit; also recorded: completely removed the endotoxin below the detection limit
[6]
  reduction of LTA: 30%
  LTA bound: 0.75 ng/mL

## SPION^APTES-SBA-SPP19: APTES-coated SPIONs linked via SBA to peptide SPP19 (SEQ ID NO: 2) (RKQGRVEILYRGSWGTVC; also: conjugated via SBA linker to APTES-coated SPIONs)
Pseudomonas aeruginosa
  Pseudomonas aeruginosa after separation: 7 CFU/ml
Staphylococcus aureus
  Staphylococcus aureus after separation: 73 CFU/ml
  CFU of re-plated bacteria loaded particles: in the range of the positive control
[6]
  reduction of LTA: 29%
  LTA bound: 0.97 ng/mL
